Data on one compound can be found in patent publication US20220288001A1, “CREATINE FOR IMMUNOTHERAPY” (The Regents of the University of California, priority 2019, published 2022).

SMILES strings stand for the structures. “Also recorded” adds a separate entry of the source.

One data set deals with B16-OVA melanoma. In words: B16-OVA melanoma model in C57BL/6J WT mice, creatine supplementation. Format: in vivo, mouse. The note with it: i.p. injection or dietary supplementation, both routes. The method, then: To establish solid tumors, mice were s.c. injected above the right flank with 1×10^6 B16-OVA or 3×10^5 MC38 cells. Before injection, cells in log phase of growth were harvested and suspended in phosphate-buffered saline (PBS), and 50 μl of cell suspension were injected subcutaneously above the flank. Tumor size was periodically measured with a digital Vernier caliper (Thermo Fisher Scientific). For creatine supplementation via i.p. injection, […] monohydrate (cat #C3630, Sigma-Aldrich) was dissolved in sterile PBS and i.p. injected to experimental animals daily at a dose of 10.5 mg per animal per injection. […] To study the effects of creatine supplementation on suppressing tumor growth, B6 mice were inoculated with B16-OVA tumor cells and monitored for tumor growth, with or without receiving creatine supplementation via i.p. injection or diet. […] To study the T cell-dependence of creatine supplementation induced anti-tumor effects, B6-OVA tumor growth was monitored and compared in B6 mice receiving i.p. injection of an anti-CD3 T cell depleting antibody (clone RMP1-14; 100 μg/mouse/injection, twice per week) or an isotype control antibody (clone LTF-2, 100 μg/mouse/injection, twice per week), with or without i.p. supplement of creatine.

Data set [1] in a line: Creatine quantification in serum after creatine supplementation. Format: in vivo, mouse. The settings on record: C57BL/6J WT mice, B16-OVA model; i.p. injection or dietary supplementation (0.4 g/kg body weight), both routes. The text has this:
A Creatine Assay Kit (Cat #ab65339, Abcam) was utilized to quantify creatine, both in vivo and in vitro, following the manufacturer's instructions. For the in vivo study, whole blood was collected (retro-orbital bleeding) from the experimental mice in a capillary tube, and the isolated serum was immediately used for the assay following the manufacturer's directions. For the in vitro study, cells were spun to remove culture media and suspended in cold PBS. Creatine was then quantified following the manufacturer's directions. The total amount of creatine detected was then normalized to cell numbers.
For creatine supplementation via i.p. injection, ceatine monohydrate (cat #C3630, Sigma-Aldrich) was dissolved in sterile PBS and i.p. injected to experimental animals daily at a dose of 10.5 mg per animal per injection.
For creatine supplementation via diet, experimental animals were fed a creatine-enriched isocaloric diet which is a customized formulation based on PicoLab Rodent Diet 20 enriched in creatine (3 g/Kg diet, cat #TD.170082, Envigo Teklad Diet). The diet was designed to reflect the safe daily dose of creatine recommended for enhanced athletic performance in humans (Mayo Clinic data). Non-treated mice (Ctrl) were fed a control diet prepared in a manner similar to that of the creatine-enriched diet.

On to `CN(CC(=O)O)C(=N)N` [creatine], for which the tumor growth result with B16-OVA melanoma is “effectively suppressed tumor growth to a similar extent; also recorded: tumor suppression benefits”. In data set [1], the “creatine concentrations in blood (serum)” value was “elevated creatine concentrations in blood to a similar level”.
